Like-named read-outs stand apart in the source and are kept apart here.
Columns and labels:
NR1/NR2B [1] = biological target: NR1/NR2B (Homo sapiens (Human), UniProt Q05586+Q13224); test: Cell assay: FDSS Ca2+ influx inhibition in HEK293 cells expressing NR1/NR2B; details: Binned Activity;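 also: Fluo-8 Ca2+ signal read on Hamamatsu FDSS 6000 after glutamate, glycine and Ca2+ challenge following 10 min compound preincubation, end/baseline fluorescence ratio compared with MK801 control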
NR1/NR2B [2] = biological target: NR1/NR2B (Homo sapiens (Human), UniProt Q13224); test: as above; details: read-out: NR2B NAM IC50
Sequence of NR1/NR2B (Homo sapiens (Human), UniProt Q13224) (Q13224 27-1484, other chains not shown): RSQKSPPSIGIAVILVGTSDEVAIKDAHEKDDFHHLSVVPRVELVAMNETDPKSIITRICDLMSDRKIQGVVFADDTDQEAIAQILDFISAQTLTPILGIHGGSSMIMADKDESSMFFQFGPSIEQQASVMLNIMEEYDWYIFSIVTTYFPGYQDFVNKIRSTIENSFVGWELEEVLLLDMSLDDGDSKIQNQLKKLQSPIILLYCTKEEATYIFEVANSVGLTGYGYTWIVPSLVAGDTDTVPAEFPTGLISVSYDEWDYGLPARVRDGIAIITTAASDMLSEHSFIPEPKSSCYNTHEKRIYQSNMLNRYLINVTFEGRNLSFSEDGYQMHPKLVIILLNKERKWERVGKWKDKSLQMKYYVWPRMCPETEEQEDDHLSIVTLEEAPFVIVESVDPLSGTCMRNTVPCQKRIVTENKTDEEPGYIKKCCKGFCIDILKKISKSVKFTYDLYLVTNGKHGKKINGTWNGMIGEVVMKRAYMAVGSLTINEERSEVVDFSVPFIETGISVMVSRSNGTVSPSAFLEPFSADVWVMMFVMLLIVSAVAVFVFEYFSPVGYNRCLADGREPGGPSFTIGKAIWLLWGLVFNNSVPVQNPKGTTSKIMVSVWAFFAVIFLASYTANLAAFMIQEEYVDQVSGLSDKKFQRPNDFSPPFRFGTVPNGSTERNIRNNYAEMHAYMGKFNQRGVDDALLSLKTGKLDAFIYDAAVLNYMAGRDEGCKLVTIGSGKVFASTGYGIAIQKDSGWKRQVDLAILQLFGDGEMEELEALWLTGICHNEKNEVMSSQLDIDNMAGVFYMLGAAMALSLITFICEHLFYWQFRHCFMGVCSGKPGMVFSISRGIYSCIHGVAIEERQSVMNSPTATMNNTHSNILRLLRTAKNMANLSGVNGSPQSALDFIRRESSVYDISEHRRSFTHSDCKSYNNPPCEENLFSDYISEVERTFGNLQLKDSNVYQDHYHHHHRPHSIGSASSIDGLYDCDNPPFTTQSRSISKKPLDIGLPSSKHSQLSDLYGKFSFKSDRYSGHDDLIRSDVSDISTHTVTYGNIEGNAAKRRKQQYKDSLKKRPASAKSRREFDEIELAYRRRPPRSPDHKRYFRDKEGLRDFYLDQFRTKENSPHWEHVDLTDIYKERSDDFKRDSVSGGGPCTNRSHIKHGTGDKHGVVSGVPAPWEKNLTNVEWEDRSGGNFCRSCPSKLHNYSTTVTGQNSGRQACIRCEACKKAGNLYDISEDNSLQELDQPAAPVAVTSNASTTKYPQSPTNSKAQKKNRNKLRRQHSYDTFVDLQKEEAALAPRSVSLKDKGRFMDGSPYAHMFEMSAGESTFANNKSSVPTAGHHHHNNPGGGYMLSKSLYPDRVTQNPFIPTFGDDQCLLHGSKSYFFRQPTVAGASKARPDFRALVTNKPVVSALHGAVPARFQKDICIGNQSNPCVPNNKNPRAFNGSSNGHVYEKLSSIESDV

[3] = HEK293 cells expressing NR1/NR2B, Ca2+ influx, binned NR2B NAM IC50
[4] = HEK293 cells expressing NR1/NR2B, Ca2+ influx

Sequence of NR1/NR2B (Homo sapiens (Human), UniProt Q05586+Q13224) (Q13224 27-1484, other chains not shown): as above

IC50 (NR1/NR2B [1]; [3])	IC50 (NR1/NR2B [2]; [4])	SMILES	IC50 (NR1/NR2B [1])	IC50 (NR1/NR2B [2])
> 10 µM	10 µM	N#Cc1cccc(NC(=O)N2C[C@@H]3C[C@@](O)(c4ccccc4)C[C@@H]3C2)c1 [Example 26, N-(3-cyanophenyl)-5-hydroxy-5-phenyl-octahydrocyclopenta[c] pyrrole-2-carboxmaide]		
> 10 µM	10 µM	Cc1ccc(NC(=O)N2C[C@@H]3C[C@@](O)(Cc4ccccc4)C[C@@H]3C2)c(C)c1 [Example 121, (3aR,5r,6aS)-5-benzyl-N-(2,4-dimethylphenyl)-5-hydroxyhexahydrocyclo-penta[c]pyrrole-2(1H)-carboxamide]		
> 10 µM	10 µM	COc1ccc(C(=O)CN2C[C@@H]3C[C@@](O)(Cc4ccccc4)C[C@@H]3C2)cc1 [Example 132, 2-((3aR,5r,6aS)-5-benzyl-5-hydroxyhexahydrocyclo-penta[c]pyrrol-2(1H)-yl)-1-(4-methoxyphenyl)ethanone]		
> 10 µM	10 µM	O=C(Nc1ccc(O)cc1)N1C[C@H]2C[C@@H](c3ccccc3)C[C@H]2C1 [Example 100, N-(4-hydroxyphenyl)-5-phenyl-octahydrocyclopenta[c] pyrrole-2-carboxamide]		
> 10 µM	10 µM	COC(=O)c1ccc(NC(=O)N2C[C@@H]3C[C@@](O)(c4ccccc4C)C[C@@H]3C2)cc1 [Example 22, Methyl 4-(5-hydroxy-5-(o-tolyl)octahydrocyclopenta [c]pyrrole-2-carboxamido)benzoate]		
> 10 µM	10 µM	COc1ccc(-c2cccc(C(=O)CN3C[C@@H]4C[C@@](O)(Cc5ccccc5)C[C@@H]4C3)c2)cc1 [Example 263, 2-((3aR,5r,6aS)-5-benzyl-5-hydroxyhexahydrocyclo-penta[c]pyrrol-2(1H)-yl)-1-(4′-methoxy-[1,1′-biphenyl]-3-yl)ethanone]		
0.1 to 1 µM	0.414 µM	Oc1ccc([C@@H](O)CN2C[C@@H]3C[C@](F)(Cc4ccccc4)C[C@@H]3C2)cc1 [Example 314, 4-((R)-2-((3aR,5S,6aS)-5-benzyl-5-fluoro-hexahydrocyclopen-ta[c]pyrrol-2(1H)-yl)-1-hydroxyethyl)phenol]		
> 10 µM	10 µM	COc1ccc(C)cc1NC(=O)N1C[C@@H]2C[C@@](O)(c3ccc(F)cc3)C[C@@H]2C1 [Example 42]		
> 10 µM	10 µM	COc1ccc(C(=O)CN2C[C@@H]3C[C@@](O)(Cc4ccccc4)C[C@@H]3C2)cn1 [Example 161, 2-((3aR,5r,6aS)-5-benzyl-5-hydroxyhexahydrocyclo-penta[c]pyrrol-2(1H)-yl)-1-(6-methoxypyridin-3-yl)ethanone]		
> 10 µM	10 µM	O=C(CN1C[C@@H]2C[C@@](O)(Cc3ccccc3)C[C@@H]2C1)c1ccc(O)c(F)n1 [Example 190, 2-((3aR,5r,6aS)-5-benzyl-5-hydroxyhexahydrocyclo-penta[c]pyrrol-2(1H)-yl)-1-(6-fluoro-5-hydroxypyridin-2-yl)ethanone]		
0.1 to 1 µM	0.682 µM	O=C(CN1C[C@@H]2CN(Cc3ccccc3)C[C@@H]2C1)c1ccc(O)cc1 [Example 326, 2-(5-benzylhexahydropyrrolo [3,4-c]pyrrol-2(1H)-yl)-1-(4-hydroxy-phenyl)ethanone]		
> 10 µM	10 µM	COc1ccc(C)cc1NC(=O)N1C[C@H]2C[C@@H](c3ccccc3)C[C@H]2C1 [Example 109, N-(2-methoxy-5-methylphenyl)-5-phenyl-octahydrocyclopenta[c] pyrrole-2-carboxamide]		
> 10 µM	10 µM	CC(C)(O)c1ccc(C(=O)CN2C[C@@H]3C[C@@](O)(Cc4ccccc4)C[C@@H]3C2)cc1 [Example 138, 2-((3aR,5r,6aS)-5-benzyl-5-hydroxyhexahydrocyclo-penta[c]pyrrol-2(1H)-yl)-1-(4-(2-hydroxypropan-2-yl)phenyl)ethanone]		

More lines, now with the values behind:

SMILES	IC50 (NR1/NR2B [1]; [3])	IC50 (NR1/NR2B [2]; [4])	IC50 (NR1/NR2B [1])	IC50 (NR1/NR2B [2])
O=C(Nc1cccnc1)N1C[C@H]2C[C@@H](c3ccccc3)C[C@H]2C1 [Example 111, 5-phenyl-N-(pyridin-3-yl)-octahydrocyclopenta[c] pyrrole-2-carboxamide]	> 10 µM	10 µM		
COc1ccc(NC(=O)N2C[C@@H]3C[C@@](O)(c4ccc(C#N)cc4)C[C@@H]3C2)cc1 [Example 2, 5-(4-cyanophenyl)-5-hydroxy-N-(4-methoxyphenyl)-octahydrocyclopenta[c] pyrrole-2-carboxamide]	> 10 µM	10 µM		
O=C(CN1C[C@@H]2C[C@@](O)(Cc3ccc(C(F)(F)F)cc3)C[C@@H]2C1)c1ccc(O)cc1 [Example 219, 2-[(3aR,5R,6aS)-5-hydroxy-5-{[4-(trifluoromethyl)phenyl]methyl}-octahydrocyclopenta[c]pyrrol-2-yl]-1-(4-hydroxyphenyl)ethan-1-one]	0.1 to 1 µM	0.125 µM		
Oc1ccc([C@@H](O)CN2C[C@@H]3C[C@](O)(Cc4ccccc4)C[C@@H]3C2)cc1 [Example 2291, (3aR,5R,6aS)-5-benzyl-2-((R)-2-hydroxy-2-(4-hydroxyphenyl)ethyl) octahydrocyclopenta [c]pyrrol-5-ol]	0.1 to 1 µM	0.332 µM		
CC(C(=O)c1ccc(O)cc1)N1C[C@H]2C[C@@H](CCc3ccccc3)C[C@H]2C1 (stereo partly drawn) [Example 325, 1-(4-hydroxyphenyl)-2-((3aR,5r,6aS)-5-phenethylhexa-hydrocyclo-penta[c]pyrrol-2(1H)-yl)propan-1-one]			0.1 to 1 µM	0.192 µM
COc1ccc(NC(=O)N2C[C@H]3C[C@@H](c4ccccc4)C[C@H]3C2)cc1 [Example 99, 2 N-(4-methoxyphenyl)-5-phenylhexahydrocyclo-penta[c]pyrrole-2(1H)-carboxamide]	> 10 µM	10 µM		
O=C(CN1C[C@@H]2C[C@@](O)(CC3CCCCC3)C[C@@H]2C1)c1ccc(O)cn1 [Example 206, 2-[(3aR,5R,6aS)-5-(cyclohexylmethyl)-5-hydroxy-octahydrocyclopenta[c]pyrrol-2-yl]-1-(5-hydroxypyridin-2-yl)ethan-1-one]	> 10 µM	10 µM		
COc1ccc(NC(=O)N2C[C@@H]3C[C@@](O)(c4ccccc4)C[C@@H]3C2)cc1 [Example 1, 5-hydroxy-N-(4-methoxyphenyl)-5-phenylhexahydrocyclopenta[c]pyrrole-2(1H)-carboxamide]	> 10 µM	10 µM		
O=C(Nc1ccccc1C(F)(F)F)N1C[C@@H]2C[C@@](O)(Cc3ccccc3)C[C@@H]2C1 [Example 127, (3aR,5r,6aS)-5-benzyl-5-hydroxy-N-(2-(trifluoromethyl)phenyl) hexahydrocyclopenta[c] pyrrole-2(1H)-carboxamide]	> 10 µM	10 µM		
O=C(Nc1cccc(C(F)(F)F)c1)N1C[C@H]2C[C@@H](c3ccccc3)C[C@H]2C1 [Example 105, 5-phenyl-N-[3-(trifluoromethyl)phenyl]-octahydrocyclopenta[c] pyrrole-2-carboxamide]	> 10 µM	10 µM		

— patent publication US10052306B2 (LUC THERAPEUTICS, INC., priority 2013, dated 2018)
